The term half-life denotes how long it takes for the measured level to halve.

Structures can show the parent of a compound that is named as a salt.

The values below come from patent publication EP4722213A1, “NITROGEN-CONTAINING FUNCTIONAL GROUP-SUBSTITUTED PYRIDAZINOPYRIDONE DERIVATIVE AND USE THEREOF” (Sichuan Huiyu Pharmaceutical Co., Ltd., priority 2023, dated 2024).

For data set [1], the system named is NCI-H358 non-small cell lung cancer cells. Put plainly: Inhibition of NCI-H358 cell proliferation (CellTiter-Glo 3D, 7 days). It is filed as cell-based. Particulars: Homo sapiens, NCI-H358, 168 h, 3D microspheres, read-out: Inhibitory activity against NCI-H358 cell proliferation (IC50). How it is done: The number of viable cells were detected by CellTiter-Glo 3D® reagent, thereby evaluating the inhibitory effect of compounds on cell proliferation. NCI-H358 non-small cell lung cancer cells (Nanjing cobioer) in the exponential growth phase were digested with trypsin-EDTA, and seeded into 96-well ultra-low attachment microplates at 100 µL per well with a density of 2000 cells/well. The cells were cultured overnight at 37°C with 5% CO2 to form microspheres. The test compounds were serially diluted 5-fold with DMSO to obtain 8 concentration gradient dilutions, then diluted with RPMI-1640 (10% FBS) cell culture medium respectively to obtain compound working solutions (2×). 100 µL per well was added to the cell supernatant, and the culture was continued for 7 days under the conditions of 37°C and 5% CO2. The well plate was removed, and 100 µL of CellTiter-Glo 3D® reagent was added. After lysis at room temperature for 10-30 minutes, 70 µL of the lysate was aspirated and transferred to a white opaque 384-well plate.
The inhibition rate was calculated by the following formula: [formula] Note: The negative control refers to the group without inhibitor, and the blank refers to the group without cells.
The inhibitory activities of some Example compounds and comparative compounds against NCI-H358 cell proliferation are shown in Table 2. Table 2. Inhibitory activity of some Example compounds against NCI-H358 cell proliferation

A short description of data set [2]: Rat liver microsomal metabolic stability. It is filed as in vitro ADME. Particulars: rat liver microsomes; for half-life at 1 µM: NADPH, 37°C; for CLint scaled at 1 µM: calculated from T1/2, fu defaulted to 1, read-out: CL(liver). The text has this:
Metabolic stability affects the clearance rate, half-life, and oral bioavailability of compounds in the body, and is one of the most important ADME drug-like properties of compounds. Hepatocyte microsomal stability assay is a commonly used method for studying metabolic stability. In the present disclosure, rat liver microsomes are used to determine and investigate the metabolic stability of compounds.
Preparation of compound stock solution: an appropriate amount of the test compound and testosterone was taken, and a 1 mM stock solution was prepared with DMSO, which was stored in a refrigerator at 4°C.
Preparation of compound working solution: The 1 mM compound stock solution was taken respectively, and then diluted to 100 µM with acetonitrile-water (v:v = 1:1) to obtain the working solution.
Preparation of NADPH working solution: an appropriate amount of NADPH was weighed and dissolved in 16 mM MgCl2 to prepare a NADPH working solution with a concentration of 4.0 mM.
Preparation of rat liver microsome working solution: an appropriate amount of rat liver microsomes was taken and diluted with PBS to obtain a liver microsome working solution with a concentration of 1 mg/mL.
In the incubation system, 48 µL of PBS, 100 µL of rat liver microsome working solution, and 2 µL of the test compound working solution were sequentially added and mixed well. After pre-incubation at 37°C for 5 min, 50 µL of NADPH was added to initiate the reaction. After incubation for the corresponding time points, an appropriate amount of ice-cold acetonitrile containing an internal standard was added to terminate the reaction. The mixture was vortexed to mix well, centrifuged, and the supernatant was collected. The supernatant was injected into LC-MS/MS for detection of the residual metabolic amount of the compound.
Softwares of Excel, etc. were used for data processing according to the following formula. Ct = C0 •e^(−ke •t) [formula] when Ct = (1)/(2)C0 [formula] , T1/2 = (Ln2)/(ke) = (0.693)/(ke) [formula] CLint(mic) = (0.693)/(In vitro T1/2)•(1)/(mg/mL microsomal protein in reaction system) [formula] CLint(liver) = CLint(mic) •(mg microsomes)/(g liver)•(g liver)/(kg body weight) [formula] CL(liver) = (CLint(liver)×fu×Qh)/(CLint(liver)×fu+Qh) [formula] fu (unbound fraction in blood) was defaulted to be 1.

The target in a further data set is T1, SOS1 (Homo sapiens, UniProt Q07889).
T1 sequence (Q07889 1-1333): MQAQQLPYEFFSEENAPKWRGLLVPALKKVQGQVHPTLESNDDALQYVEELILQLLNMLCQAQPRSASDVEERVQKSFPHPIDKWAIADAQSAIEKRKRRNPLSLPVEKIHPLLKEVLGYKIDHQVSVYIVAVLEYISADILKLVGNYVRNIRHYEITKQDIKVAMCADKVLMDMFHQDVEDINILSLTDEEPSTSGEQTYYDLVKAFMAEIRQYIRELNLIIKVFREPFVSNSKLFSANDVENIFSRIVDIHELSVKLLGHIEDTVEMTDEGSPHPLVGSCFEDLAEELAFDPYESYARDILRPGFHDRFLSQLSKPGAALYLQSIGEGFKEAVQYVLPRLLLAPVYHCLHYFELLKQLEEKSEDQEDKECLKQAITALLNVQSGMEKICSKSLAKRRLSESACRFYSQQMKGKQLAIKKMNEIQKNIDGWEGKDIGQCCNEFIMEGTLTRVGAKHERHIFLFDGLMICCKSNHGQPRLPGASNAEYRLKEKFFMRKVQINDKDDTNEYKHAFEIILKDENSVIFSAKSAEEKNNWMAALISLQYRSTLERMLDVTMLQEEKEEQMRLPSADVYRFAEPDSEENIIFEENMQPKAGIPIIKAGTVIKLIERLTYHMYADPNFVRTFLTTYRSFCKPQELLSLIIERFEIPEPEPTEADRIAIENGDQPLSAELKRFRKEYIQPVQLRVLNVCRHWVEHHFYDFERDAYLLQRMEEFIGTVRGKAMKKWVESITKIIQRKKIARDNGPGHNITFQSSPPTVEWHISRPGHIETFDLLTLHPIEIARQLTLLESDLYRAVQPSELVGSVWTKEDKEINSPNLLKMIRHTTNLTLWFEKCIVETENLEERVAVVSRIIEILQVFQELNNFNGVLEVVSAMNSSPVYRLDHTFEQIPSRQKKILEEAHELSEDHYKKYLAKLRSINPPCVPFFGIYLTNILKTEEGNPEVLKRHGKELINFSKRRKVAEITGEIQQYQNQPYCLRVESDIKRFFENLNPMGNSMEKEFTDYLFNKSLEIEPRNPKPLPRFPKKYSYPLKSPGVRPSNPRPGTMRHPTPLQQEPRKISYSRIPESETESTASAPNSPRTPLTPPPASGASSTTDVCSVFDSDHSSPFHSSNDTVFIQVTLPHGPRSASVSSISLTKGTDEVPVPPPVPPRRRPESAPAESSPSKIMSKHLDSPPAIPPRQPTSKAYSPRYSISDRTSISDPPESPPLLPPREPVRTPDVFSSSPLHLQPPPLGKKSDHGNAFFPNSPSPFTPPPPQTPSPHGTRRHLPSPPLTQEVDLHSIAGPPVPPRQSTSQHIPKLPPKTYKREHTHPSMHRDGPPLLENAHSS
In words: biochemical.

For `C[C@@H](Nc1nnc(N2CCN(C3CCCC3)CC2)c2cc(=O)n(C3(C)CC3)cc12)c1cccc(C(F)F)c1F` [Example 221, (R)-1-(4-cyclopentylpiperazin-1-yl)-4-((1-(3-(difluoromethyl)-2-fluorophenyl)ethyl)amino)-6-(1-methylcyclopropyl) pyrido[3,4-d]pyridazin-7(6H)-one], the IC50 in data set [1] came to 53.6 nM. Also, in data set [2], the half-life at 1 µM was 1.12 h and the CLint scaled at 1 µM was 22.2 mL/min/kg. Moreover, the IC50 on SOS1 stood at 5 nM.

As to `Cc1c([C@@H](C)Nc2nnc(N3CCN(C(C)C)CC3)c3cc(=O)n(C4(C)CC4)cc23)cccc1C(F)(F)F` [Example 91, (R)-1-(4-isopropylpiperazin-1-yl)-4-((1-(2-methyl-3-(trifluoromethyl)phenyl)ethyl)amino)-6-(1-methylcyclopropyl) pyrido[3,4-d]pyridazin-7(6H)-one], in data set [1], the IC50 was determined as 38.5 nM. Further, in data set [2], the half-life at 1 µM was determined as 2.52 h and the CLint scaled at 1 µM is 12.7 mL/min/kg. Further, on SOS1, the IC50 came to 5.7 nM.

With `C[C@@H](Nc1nnc(N2CCN(CC3CC3)CC2)c2cc(=O)n(C3(C)CC3)cc12)c1cccc(C(F)F)c1F` [Example 219, (R)-1-(4-(cyclopropylmethyl)piperazin-1-yl)-4-((1-(3-(difluoromethyl)-2-fluorophenyl)ethyl)amino)-6-(1-methylcyclopropyl) pyrido[3,4-d]pyridazin-7(6H)-one], the IC50 was determined as 25 nM in data set [1] and 4.7 nM at SOS1. In data set [2], this molecule registered a half-life at 1 µM of 2.8 h. In data set [2], the CLint scaled at 1 µM is 11.7 mL/min/kg.

On to `CCN1CCN(c2nnc(N[C@H](C)c3cccc(C(F)(F)F)c3C)c3cn(C4(C)CC4)c(=O)cc23)CC1` [Example 104, (R)-1-(4-ethylpiperazin-1-yl)-4-((1-(2-methyl-3-(trifluoromethyl)phenyl)ethyl)amino)-6-(1-methylcyclopropyl) pyrido[3,4-d]pyridazin-7(6H)-one], for which the IC50 in data set [1] was 29.7 nM. Besides, in data set [2], the half-life at 1 µM was 2.6 h and the CLint scaled at 1 µM is 12.4 mL/min/kg. Further, the IC50 on SOS1 worked out at 7.5 nM.

On to `C[C@@H](Nc1nnc(N2CCN(C(C)(C)C)CC2)c2cc(=O)n(C3CC(F)(F)C3)cc12)c1cccc(C(F)F)c1F` [Example 108, (R)-6-(3,3-difluorocyclobutyl)-4-((1-(3-(difluoromethyl)-2-fluorophenyl)ethyl)amino)-1-(4-(tert-butyl)piperazin-1-yl)pyrido[3,4-d]pyridazin-7(6H)-one], for which the IC50 was found to be 27 nM in data set [1] and 5.5 nM at SOS1. Also, in data set [2], the half-life at 1 µM is 2.23 h. Also, the CLint scaled at 1 µM in data set [2] was 13.9 mL/min/kg.

On to `CC(C)N1CCN(c2nnc(N[C@H](C)c3cccc(C(F)F)c3F)c3cn(C4CCC4)c(=O)cc23)CC1` [Example 113, (R)-6-cyclobutyl-4-((1-(3-(difluoromethyl)-2-fluorophenyl)ethyl)amino)-1-(4-isopropylpiperazin-1-yl)pyrido[3,4-d]pyridazin-7(6H)-one], for which the IC50 in data set [1] turned out to be 24.2 nM; against SOS1, 4.5 nM. The molecule further returned a half-life at 1 µM in data set [2] of 2.25 h. Besides, the CLint scaled at 1 µM in data set [2] was 13.9 mL/min/kg.

Consider `C[C@@H](Nc1nnc(N2CCN(C)CC2)c2cc(=O)n(C3CC(F)(F)C3)cc12)c1cccc(C(F)F)c1F` [Example 90, (R)-6-(3,3-difluorocyclobutyl)-4-((1-(3-(difluoromethyl)-2-fluorophenyl)ethyl)amino)-1-(4-methylpiperazin-1-yl)pyrido[3,4-d]pyridazin-7(6H)-one], for which the IC50 in data set [1] came out at 49.8 nM. Also, in data set [2], the half-life at 1 µM was 2.32 h and the CLint scaled at 1 µM was 13.5 mL/min/kg. On SOS1, this molecule yielded an IC50 of 4.2 nM.

On to `C[C@@H](Nc1nnc(N2CCN(C3CCC3)CC2)c2cc(=O)n(C3(C)CC3)cc12)c1cccc(C(F)F)c1F` [Example 220, (R)-1-(4-cyclobutylpiperazin-1-yl)-4-((1-(3-(difluoromethyl)-2-fluorophenyl)ethyl)amino)-6-(1-methylcyclopropyl) pyrido[3,4-d]pyridazin-7(6H)-one], for which the IC50 in data set [1] worked out at 56.7 nM. In data set [2], the half-life at 1 µM came to 1.34 h and the CLint scaled at 1 µM was 19.9 mL/min/kg. The molecule further registered an IC50 against SOS1 of 4 nM.

Consider `C[C@@H](Nc1nnc(N2CC3(CCC3)C2)c2cc(=O)n(C3(C)CC3)cc12)c1cccc(C(F)F)c1F` [Example 191, (R)-4-((1-(3-(difluoromethyl)-2-fluorophenyl)ethyl)amino)-6-(1-methylcyclopropyl)-1-(2-azaspiro[3.3]heptan-2-yl)pyrido[3,4-d]pyridazin-7(6H)-one], for which the IC50 was 39.3 nM in data set [1] and 4.5 nM against SOS1.

As for `C[C@@H](Nc1nnc(N2CCN(CCO)CC2)c2cc(=O)n(C3(C)CC3)cc12)c1cccc(C(F)F)c1F` [Example 194, (R)-4-((1-(3-(difluoromethyl)-2-fluorophenyl)ethyl)amino)-1-(4-(2-hydroxyethyl)piperazin-1-yl)-6-(1-methylcyclopropyl) pyrido[3,4-d]pyridazin-7(6H)-one], the IC50 in data set [1] turned out to be 44.9 nM; against SOS1 it was 3.9 nM.

As for `CCN1CCN(c2nnc(N[C@H](C)c3cccc(C(F)(F)F)c3F)c3cn(C4(C)CC4)c(=O)cc23)CC1` [Example 168, (R)-1-(4-ethylpiperazin-1-yl)-4-((1-(2-fluoro-3-(trifluoromethyl)phenyl)ethyl)amino)-6-(1-methylcyclopropyl) pyrido[3,4-d]pyridazin-7(6H)-one formate], the IC50 was 35.5 nM in data set [1] and 4.1 nM at SOS1.
